Measured values taken from patent US20060074243A1, “Hydroxamic acid and amide compounds and their use as protease inhibitors” (Pharmacia Corporation, priority 2002, published 2006).
pKi: −log10 of the molar value.

Experiments:
Assay in all cases: In vitro MMP inhibition analysis (fluorogenic peptide substrate cleavage), Ki
Assay type in all cases: biochemical
Details in all cases: Table 2
Human recombinant MMP-9 = molecular target: T1, Human recombinant MMP-9 (Homo sapiens, UniProt P14780)
T1 construct: made in house; host or cells: MMP-9-transfected HT1080 cells (spent media)
Method in brief: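 Recombinant MMP-9 purified from transfected HT1080 cell media, activated with APMA, trypsin or recombinant MMP-3, assayed in Tris buffer pH 7.5 with CaCl2 and 4 μM fluorogenic MCA/Dpa peptide, 1 h at room temperature (ex 330/em 420 nm). Ki from Morrison-equation regression of velocity; substrate at or below Km, uncorrected.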

Human recombinant MMP-13 = molecular target: T2, Human recombinant MMP-13 (Homo sapiens, UniProt P45452)
T2 construct: made in house; host or cells: baculovirus / insect cells
Experimental: Several compounds and salts were analyzed in an in vitro assay to determine their ability to inhibit the MMP cleavage of peptide substrates. Inhibition constant (Ki) were calculated from the assayed compound-MMP interactions.
Human recombinant MMP-1, MMP-2, MMP-9, MMP-13, and MMP-14 were used in this assay. All enzymes were prepared in Assignee's laboratories following usual laboratory procedures. Protocols for the preparation and use of these enzymes are available in the scientific literature. See, e.g., Enzyme Nomenclature (Academic Press, San Diego, Calif., 1992) (and the citations therein). See also, Frije et al., J. Biol. Chem., 26(24), 16766-73 (1994).
The MMP-13 was obtained as a proenzyme from a full-length cDNA clone using baculovirus, as described by V. A. Luckow, “Insect Cell Expression Technology,” Protein Engineering: Principles and Practice, pp. 183-218 (edited by J. L. Cleland et al., Wiley-Liss, Inc., 1996). The expressed proenzyme was first purified over a heparin agarose column, and then over a chelating zinc chloride column. The proenzyme was then activated by APMA for use in the assay. Further details on baculovirus expression systems may be found in, for example, Luckow et al., J. Virol., 67, 4566-79 (1993). See also, O'Reilly et al, Baculovirus Expression Vectors: A Laboratory Manual (W.H. Freeman and Co., New York, N.Y., 1992). See also, King et al., The Baculovirus Expression System: A Laboratory Guide (Chapman & Hall, London, England, 1992).
All MMPs were activated using 4-aminophenylmercuric acetate (“APMA”, Sigma Chemical, St. Louis, Mo.) or trypsin. MMP-9 also was activated using human recombinant MMP-3 (purified in Assignee's laboratory following standard cloning and purification techniques).
The following fluorogenic, methoxycoumarin-containing polypeptide substrate (I) was used in the MMP inhibition assays: MCA-ArgProLeuGlyLeuDpaAlaArgGluArgNH2 (I) “MCA” is 7-methoxycoumarin-4-yl acetyl. Substrate (I) was prepared Assignee's laboratory. In the absence of MMP inhibitory activity, the substrate is cleaved at the Gly-Leu peptide bond. This cleavage separates the highly fluorogenic peptide from the 2,4-dinitrophenyl quencher, thus resulting in increase of fluorescent intensity.
The stock solutions of the assayed compounds and salts were prepared in […] (DMSO). These stock solutions were diluted in Buffer A (100 mM Tris-HCl, 100 mM NaCl, 10 mM CaCl2, 0.05% polyoxyethylene 23 lauryl ether, pH 7.5) to obtain solutions with different compound concentrations, i.e., assay solutions with different concentrations of the assayed […] compound. The experiment controls contained the same amount of Buffer A/DMSO as the assayed sample, but contained none of the tested compound or salt.
The assays from which the Ki determinations were made were performed as follows. The assayed compound samples were incubated in separate wells of untreated white polystyrene plates (Nunc Nalgene International, Rochester, N.Y.), and analyzed on a Tecan SpectraFlour Plus plate reader. The excitation wavelength was 330 nm, and the emission wavelength—420 nm. All samples (assayed compounds and controls) were incubated in separate plate wells at room temperature for 1 hr in the presence of 4 μM of MMP substrate (I). In the absence of MMP inhibitory activity, substrate (I) was cleaved at the Gly-Leu bond resulting in an increase of relative fluorescence. Inhibition was observed as a reduced rate of this increase in relative fluorescence. […] This protocol is a modification of method by Knight et al., FEBS Lett., 296(3), 263-266 (1992). Apparent inhibitory constants were determined by non-linear regression of reaction velocity as a function of inhibitor and enzyme concentration using Morrison's equation, as described by Kuzmic, Anal. Biochem. 286, 45-50 (2000). […]

Human recombinant MMP-14 = molecular target: T3, Human recombinant MMP-14 (Homo sapiens, UniProt P50281)
T3 construct: The catalytic domain enzyme was expressed in E. coli inclusion bodies, solubilized in urea; made in house
Method in brief: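 Refolded catalytic domain of MMP-14 expressed in E. coli, activated with APMA or trypsin, incubated 1 h at room temperature with 4 μM MCA-peptide substrate in Tris buffer pH 7.5 with CaCl2. Cleavage rate followed by fluorescence (ex 330/em 420 nm). Ki from Morrison-equation fit; substrate at or below Km, so no substrate correction.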

T1 sequence (P14780 107-707 limits assumed): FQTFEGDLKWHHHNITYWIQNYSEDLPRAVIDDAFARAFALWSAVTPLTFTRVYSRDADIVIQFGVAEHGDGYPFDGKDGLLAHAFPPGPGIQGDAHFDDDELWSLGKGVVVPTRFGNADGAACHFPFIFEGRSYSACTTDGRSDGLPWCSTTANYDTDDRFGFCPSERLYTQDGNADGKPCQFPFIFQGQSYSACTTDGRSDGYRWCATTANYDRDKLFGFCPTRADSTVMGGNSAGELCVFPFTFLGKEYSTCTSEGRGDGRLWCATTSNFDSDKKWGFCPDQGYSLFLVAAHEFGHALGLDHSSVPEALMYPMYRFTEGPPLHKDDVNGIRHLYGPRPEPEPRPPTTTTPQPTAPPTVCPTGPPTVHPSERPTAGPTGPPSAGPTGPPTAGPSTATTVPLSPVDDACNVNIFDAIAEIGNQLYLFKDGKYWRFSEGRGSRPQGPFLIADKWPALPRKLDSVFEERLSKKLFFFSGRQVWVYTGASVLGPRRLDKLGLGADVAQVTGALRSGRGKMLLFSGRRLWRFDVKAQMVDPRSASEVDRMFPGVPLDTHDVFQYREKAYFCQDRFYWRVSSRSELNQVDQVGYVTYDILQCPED

Row | Structure (SMILES) | pKi (Human recombinant MMP-9) | pKi (Human recombinant MMP-13) | pKi (Human recombinant MMP-14)
1 | COCCOc1ccc(-c2ccc(S(=O)(=O)C3(C(=O)NO)CCOCC3)cc2)cc1 [Example 70] | 8.95 | 10.52 | 6.52
2 | CCCCOc1ccc(-c2ccc(S(=O)(=O)C3(C(=O)NO)CCOCC3)cc2)cc1 [Example 77] | 9.40 | 10.31 | 6.76
3 | CCCCOc1ccc(-c2ccc(S(=O)(=O)C3(C(=O)NO)CCOCC3)cc2)cc1C(F)(F)F [Example 78] | 6.88 | 7.78 | 5.02
4 | CCc1ccc(-c2ccc(S(=O)(=O)C3(C(=O)NO)CCOCC3)cc2)cc1 [Example 79] | 9.20 | 10.04 | 7.56
5 | O=C(NO)C1(S(=O)(=O)c2ccc(-c3ccc(OC(F)(F)F)cc3)cc2)CCOCC1 [Example 80] | 9.21 | 10.17 | 7.05
6 | Cc1ccc(-c2ccc(S(=O)(=O)C3(C(=O)NO)CCOCC3)cc2)nc1 [Example 81] | 9.00 | 9.93 | 7.65
7 | O=C(NO)C1(S(=O)(=O)c2ccc(-c3ccc(C(F)(F)F)cn3)cc2)CCOCC1 [Example 82] | 8.70 | 9.89 | 7.18
8 | CCCCNc1cnc(-c2ccc(S(=O)(=O)C3(C(=O)NO)CCOCC3)cc2)cn1 [Example 83] | 8.56 | 8.88 | 5.20
9 | O=C(NO)C1(S(=O)(=O)c2ccc(-c3ccc(F)c(C(F)(F)F)c3)cc2)CCOCC1 [Example 84] | 7.01 | 8.73 | 6.00
10 | O=C(NO)C1(S(=O)(=O)c2ccc(-c3ccc(OCC(F)(F)C(F)F)c(C(F)(F)F)c3)cc2)CCOCC1 [Example 85] | 6.61 | 7.83 | 5.55
11 | CC(C)CCOc1ccc(-c2ccc(S(=O)(=O)C3(C(=O)NO)CCOCC3)cc2)cc1C(F)(F)F [Example 86] | 6.38 | 7.44 | < 5.00
12 | CCCc1ccc(-c2ccc(S(=O)(=O)C3(C(=O)NO)CCOCC3)cc2)cc1 [Example 87] | 9.75 | 9.86 | 7.21
13 | O=C(NO)C1(S(=O)(=O)c2ccc(-c3cnc(OCCCC(F)(F)F)cn3)cc2)CCOCC1 [Example 88] | 8.64 | 10.43 | 6.27
14 | CCCCc1ccc(-c2ccc(S(=O)(=O)C3(C(=O)NO)CCOCC3)cc2)nc1 [Example 89] | 10.28 | 10.48 | 6.86
15 | O=C(NO)C1(S(=O)(=O)c2ccc(-c3ccc(OCC(F)(F)C(F)(F)F)c(C(F)(F)F)c3)cc2)CCOCC1 [Example 90] | 6.67 | 7.71 | 5.68
16 | CCCCc1ccc(-c2ccc(S(=O)(=O)C3(C(=O)NO)CCOCC3)cc2)cc1 [Example 91] | 9.58 | 9.66 | 6.49
17 | CCC(C)COc1ccc(-c2ccc(S(=O)(=O)C3(C(=O)NO)CCOCC3)cc2)cc1C(F)(F)F (stereo not drawn) [Example 92] | 6.97 | 7.53 | 5.13
18 | CCNc1cnc(-c2ccc(S(=O)(=O)C3(C(=O)NO)CCOCC3)cc2)cn1 [Example 93] | 8.31 | 8.35 | 5.35
19 | O=C(NO)C1(S(=O)(=O)c2ccc(-c3cnc(-n4cccc4)cn3)cc2)CCOCC1 [Example 94] | 8.47 | 9.37 | 5.53

Row | Structure (SMILES) | pKi (Human recombinant MMP-9) | pKi (Human recombinant MMP-13) | pKi (Human recombinant MMP-14)
20 | O=C(NO)C1(S(=O)(=O)c2ccc(-c3ccc(OCC(F)(F)C(F)(F)F)cc3)cc2)CCOCC1 [Example 95] | 9.12 | 9.81 | 6.33
21 | O=C(NO)C1(S(=O)(=O)c2ccc(-c3ccc(C(F)(F)F)cc3F)cc2)CCOCC1 [Example 96] | 8.67 | 9.38 | 6.65
22 | CC(C)c1ccc(-c2ccc(S(=O)(=O)C3(C(=O)NO)CCOCC3)cc2)cc1 [Example 97] | 8.27 | 9.28 | 6.96
23 | COC/C(Cl)=C/c1cnc(-c2ccc(S(=O)(=O)C3(C(=O)NO)CCOCC3)cc2)cn1 [Example 165] | 6.57 | 9.08 | 5.95
24 | CC(C)CC#Cc1cnc(-c2ccc(S(=O)(=O)C3(C(=O)NO)CCOCC3)cc2)cn1 [Example 166] | 10.00 | 10.52 | 6.58
25 | O=C(NO)C1(S(=O)(=O)c2ccc(-c3ccc(CCC(F)(F)C(F)(F)F)cc3)cc2)CCS(=O)(=O)CC1 [Example 167] | 7.90 | 9.13 | 5.44
26 | O=C(NO)C1(S(=O)(=O)c2ccc(-c3cnc(OCC4CC4)cn3)cc2)CCOCC1 [Example 168] | 9.72 | 10.22 | 7.34
27 | CC(C)CCc1cnc(-c2ccc(S(=O)(=O)C3(C(=O)NO)CCOCC3)cc2)cn1 [Example 169] | 9.23 | 9.62 | 5.60
28 | CC(C)COc1cnc(-c2ccc(S(=O)(=O)C3(C(=O)NO)CCOCC3)cc2)cn1 [Example 170] | 10.10 | 10.10 | 6.63
29 | O=C(N1CCOCC1)N1CCC(C(=O)NO)(S(=O)(=O)c2ccc(-c3ccc(CCC(F)(F)C(F)(F)F)cc3)cc2)CC1 [Example 171] | 9.21 | 9.64 | 6.20
30 | O=C(NO)C1(S(=O)(=O)c2ccc(-c3cnc(OCCC4CC4)cn3)cc2)CCOCC1 [Example 172] | 10.22 | 10.52 | 6.65
31 | CN(C)C(=O)N1CCC(C(=O)NO)(S(=O)(=O)c2ccc(-c3ccc(CCC(F)(F)C(F)(F)F)cc3)cc2)CC1 [Example 173] | 9.17 | 9.49 | 6.36
32 | CC(C)N(C(=O)N1CCC(C(=O)NO)(S(=O)(=O)c2ccc(-c3ccc(CCC(F)(F)C(F)(F)F)cc3)cc2)CC1)C(C)C [Example 174] | 8.42 | 8.72 | 5.93
33 | O=C(N1CCCCC1)N1CCC(C(=O)NO)(S(=O)(=O)c2ccc(-c3ccc(CCC(F)(F)C(F)(F)F)cc3)cc2)CC1 [Example 175] | 8.87 | 9.15 | < 5.00
34 | O=C(NO)C1(S(=O)(=O)c2ccc(-c3ccc(CCC(F)(F)F)cn3)cc2)CCOCC1 [Example 176] | 10.40 | 10.70 | 6.95
35 | COCCC(C(=O)NO)S(=O)(=O)c1ccc(-c2ccc(CCC(F)(F)C(F)(F)F)cc2)cc1 (stereo not drawn) [Example 177] | 8.27 | 9.09 | 5.23
36 | O=C(NO)C1(S(=O)(=O)c2ccc(-c3cnc(OCC4CCC4)cn3)cc2)CCOCC1 [Example 178] | 9.85 | 10.10 | 6.49
37 | COc1ccc(C(=O)c2cnc(-c3ccc(S(=O)(=O)C4(C(=O)NO)CCOCC4)cc3)cn2)cc1 [Example 179] | 7.41 | 9.01 | 6.66
